In ChEMBL document CHEMBL1250451, “Mechanistic insights into a Ca2+-dependent family of alpha-mannosidases in a human gut symbiont” (Nat Chem Biol, 2010):
Activity calls are given as the source filed them. The calls are words filed in the database; no cut-off is given here.

Key:
Assay type in all cases: protein assay
[1] = biological target: T1, Alpha-1,2-mannosidase (BT_3991) (Bacteroides thetaiotaomicron) (UniProt Q8A0N0); test: Activity of Bacteroides thetaiotaomicron GH92 alpha-mannosidase GH92 alpha-mannosidase 3991 assessed as mannose release at 1 mM after 16 hrs by HPLC relative to untreated control after 16 hrs by HPLC
T1 sequence (whole entry): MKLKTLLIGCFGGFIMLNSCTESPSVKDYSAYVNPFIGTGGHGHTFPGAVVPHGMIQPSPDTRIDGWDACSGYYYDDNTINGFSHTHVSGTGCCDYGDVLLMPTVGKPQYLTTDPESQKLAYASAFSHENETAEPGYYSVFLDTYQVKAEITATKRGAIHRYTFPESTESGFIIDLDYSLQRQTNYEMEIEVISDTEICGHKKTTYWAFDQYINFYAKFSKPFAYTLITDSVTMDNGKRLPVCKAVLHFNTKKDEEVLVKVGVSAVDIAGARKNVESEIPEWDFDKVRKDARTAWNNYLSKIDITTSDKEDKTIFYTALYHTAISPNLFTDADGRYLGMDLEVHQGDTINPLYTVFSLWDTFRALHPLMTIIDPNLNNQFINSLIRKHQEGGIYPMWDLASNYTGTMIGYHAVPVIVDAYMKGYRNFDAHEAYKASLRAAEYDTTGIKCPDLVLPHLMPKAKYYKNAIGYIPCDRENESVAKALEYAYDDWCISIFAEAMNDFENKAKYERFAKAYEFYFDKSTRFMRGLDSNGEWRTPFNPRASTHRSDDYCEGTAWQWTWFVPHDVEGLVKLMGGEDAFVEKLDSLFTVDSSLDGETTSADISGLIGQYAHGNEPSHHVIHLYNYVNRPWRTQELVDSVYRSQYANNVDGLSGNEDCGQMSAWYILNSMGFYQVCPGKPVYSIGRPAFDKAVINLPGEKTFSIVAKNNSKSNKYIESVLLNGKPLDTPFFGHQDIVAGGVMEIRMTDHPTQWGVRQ

[2] = biological target: T2, Alpha-1,2-mannosidase family protein (BT_1032) (Bacteroides thetaiotaomicron) (UniProt Q8A8Y5); test: Activity of Bacteroides thetaiotaomicron GH92 alpha-mannosidase 1032 assessed as mannose release at 1 mM after 16 hrs by HPLC relative to untreated control
T2 sequence (whole entry): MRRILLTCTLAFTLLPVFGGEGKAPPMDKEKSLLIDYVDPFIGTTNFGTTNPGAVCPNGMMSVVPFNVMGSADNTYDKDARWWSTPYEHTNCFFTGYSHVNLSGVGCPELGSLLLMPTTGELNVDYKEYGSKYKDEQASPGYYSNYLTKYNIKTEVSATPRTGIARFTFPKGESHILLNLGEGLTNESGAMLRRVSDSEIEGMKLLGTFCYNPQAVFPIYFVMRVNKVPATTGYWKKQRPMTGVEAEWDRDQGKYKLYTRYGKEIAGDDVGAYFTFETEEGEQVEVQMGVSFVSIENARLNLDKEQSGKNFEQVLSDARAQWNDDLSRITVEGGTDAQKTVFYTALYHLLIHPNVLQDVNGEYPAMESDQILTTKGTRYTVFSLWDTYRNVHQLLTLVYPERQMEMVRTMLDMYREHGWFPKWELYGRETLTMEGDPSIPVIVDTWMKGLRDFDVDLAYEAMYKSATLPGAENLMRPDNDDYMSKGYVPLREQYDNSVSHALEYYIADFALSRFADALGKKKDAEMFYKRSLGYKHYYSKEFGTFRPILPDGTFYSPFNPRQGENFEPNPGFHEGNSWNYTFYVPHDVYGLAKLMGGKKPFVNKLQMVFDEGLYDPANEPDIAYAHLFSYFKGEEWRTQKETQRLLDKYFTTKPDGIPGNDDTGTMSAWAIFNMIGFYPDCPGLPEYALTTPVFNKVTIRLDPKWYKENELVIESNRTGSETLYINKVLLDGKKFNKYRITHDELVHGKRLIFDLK

[3] = biological target: T3, Alpha-1,2-mannosidase, putative (BT_3773) (Bacteroides thetaiotaomicron) (UniProt Q8A193); test: Activity of Bacteroides thetaiotaomicron GH92 alpha-mannosidase GH92 alpha-mannosidase 3773 assessed as mannose release at 1 mM after 16 hrs by HPLC relative to untreated control after 16 hrs by HPLC
T3 sequence (whole entry): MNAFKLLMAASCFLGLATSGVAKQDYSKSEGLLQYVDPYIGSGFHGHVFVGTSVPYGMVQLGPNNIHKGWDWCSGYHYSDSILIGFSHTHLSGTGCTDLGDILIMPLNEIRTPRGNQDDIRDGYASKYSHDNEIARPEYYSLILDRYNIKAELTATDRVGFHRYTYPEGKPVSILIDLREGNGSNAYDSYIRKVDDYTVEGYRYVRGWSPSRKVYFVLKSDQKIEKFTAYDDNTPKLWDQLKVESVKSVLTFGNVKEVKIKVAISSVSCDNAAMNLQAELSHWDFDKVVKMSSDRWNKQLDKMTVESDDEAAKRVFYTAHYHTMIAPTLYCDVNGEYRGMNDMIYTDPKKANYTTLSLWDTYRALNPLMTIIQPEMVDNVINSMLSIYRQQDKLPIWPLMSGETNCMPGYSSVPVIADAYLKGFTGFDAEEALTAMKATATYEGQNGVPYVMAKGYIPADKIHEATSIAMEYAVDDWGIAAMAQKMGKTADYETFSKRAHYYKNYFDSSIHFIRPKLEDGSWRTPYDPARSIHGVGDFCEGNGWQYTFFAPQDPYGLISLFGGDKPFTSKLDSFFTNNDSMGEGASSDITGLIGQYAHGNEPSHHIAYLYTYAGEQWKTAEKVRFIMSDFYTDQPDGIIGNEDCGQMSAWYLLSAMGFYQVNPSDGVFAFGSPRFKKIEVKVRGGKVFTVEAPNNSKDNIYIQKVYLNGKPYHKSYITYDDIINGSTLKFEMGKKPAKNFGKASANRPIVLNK

Structure (SMILES)	Activity [1]	Activity [2]	Activity [3] [%]
OC[C@H]1O[C@H](O[C@H]2[C@@H](O)[C@H](O)[C@@H](CO)O[C@@H]2O)[C@@H](O)[C@@H](O)[C@@H]1O	0.8%	inactive	0.91
OC[C@H]1O[C@H](OC[C@H]2O[C@H](O)[C@@H](O)[C@@H](O)[C@@H]2O)[C@@H](O)[C@@H](O)[C@@H]1O	1.51%	inactive	0.0088
OC[C@H]1O[C@H](O[C@@H]2[C@H](O)[C@@H](O)O[C@H](CO)[C@H]2O)[C@@H](O)[C@@H](O)[C@@H]1O	–	inactive	–
OC[C@H]1O[C@H](O[C@H]2[C@H](O)[C@H](O)[C@@H](O)O[C@@H]2CO)[C@@H](O)[C@@H](O)[C@@H]1O	inactive	inactive	4.7
